Reference: patent US8962652B2, “Derivatives of purine or deazapurine useful for the treatment of (inter alia) viral infections” (Gilead Sciences, Inc., priority 2009, dated 2015)

System: human Peripheral Blood Mononuclear Cell (PMBC)
Assay: PBMC assay: cytokine (IFN-alpha) stimulation at 24 hours
Type: cell-based
Conditions: minimum concentration for induction of IFN-alpha = 3-fold over background
Experimental: Assays were conducted to determine cytokine stimulation at 24 hours from human Peripheral Blood Mononuclear Cell (PMBC) using the compounds of the present invention. The assays were run in duplicate, with 8-point, half-log dilution curves. The compounds of the present invention were diluted from 10 mM DMSO solution. Cell supernatants are assayed directly for IFNa and 1:10 dilution for TNFa. The assays were performed in a similar fashion as described in Bioorg. Med. Chem. Lett. 16, 4559, (2006). Specifically, cryo-preserved PBMCs were thawed and seeded 96 well plates with 750,000 cells/well in 190 μL/well cell media. The PBMCs were then incubated for 1 hour at 37° C. at […]. Then, the compounds of the present invention were added in 10 μL cell media at 8 point, half-log dilution titration. The plates were incubated at 37° C. and 5% CO2 for 24 hours and then spinned at 1200 rpm for 10 min, which was followed by collecting supernatant and storing the same at −80° C. Cytokine secretion was assayed with Luminex and Upstate multi-plex kits, using a Luminex analysis instrument. IFN MEC value for a compound was the minimum concentration at which IFN-a production stimulated by the compound reached three fold above background, as determined using the assay method above.

Row | SMILES | minimal effective concentration (read-out: MEC) [µM] | MEC
1 | COCCOc1cc2c([nH]c(=O)n2Cc2ccc(-c3ccc(CN4CCCC4)cc3)cc2)c(N)n1 [AX] | 0.001 to 0.009 | –
2 | CCCCOc1nc(N)c2[nH]c(=O)n(Cc3cccc(-c4ccccc4CN4CCCC4)c3)c2n1 [A] | – | d (d: 100 nM-1000 nM)
